Values of other authors as cited in US20090312295A1, “Second line treatment of metastatic hormone refractory prostate cancer using satraplatin” (priority 2006, published 2009).

Assays:
[1] = sequential schedules
LNCaP cells = conditions: 42 hours, 12 μM satraplatin or 0.7 μM JM-118
[2] = test system: prostate cancer cell lines PC-3, DU 145 and LNCaP
[3] = test system: human tumor cell lines with different sensitivities to cisplatin
[4] = test system: hormone refractory prostate cancer; conditions: symptomatic patients; mitoxantrone combined with prednisone versus prednisone alone
[5] = test system: hormone refractory carcinoma of the prostate
[6] = test system: hormone refractory prostate cancer; conditions: estramustine combined with either paclitaxel or docetaxel
[7] = test system: hormone refractory prostate cancer; conditions: first-line HRPC
[8] = test system: mismatch repair-proficient and mismatch repair-deficient cell lines
[9] = test system: H460 human non-small cell lung carcinoma (NSCLC); conditions: H460 xenografted in nude mice
[10] = test system: human ovarian carcinoma xenograft models; conditions: oral versus intravenous cisplatin and carboplatin
[11] = test system: ovarian cancer carcinoma cell lines; conditions: panel of ovarian carcinoma cell lines
[12] = test system: hormone refractory prostate cancer; conditions: 120 mg/m^2 per day for 5 days every 4 weeks, single agent
[13] = test system: Schizosaccharomyces pombe; conditions: panel of 23 yeast strains, mutants in genes affecting radiation response
[14] = test system: prostate carcinoma models; conditions: in vivo

N.NC1CCCCC1.[Cl-].[Cl-].[Pt+2] [JM118, reference compound]
in vitro anticancer activity in combination with erlotinib, paclitaxel or 5-FU [1]: synergistic in vitro anticancer activity
PSA mRNA transcription (LNCaP cells): 90 % of control
cell number (LNCaP cells): 61 % of control
secreted PSA protein level (LNCaP cells): 61 % of control
result of treatment of prostate cancer cells [2]: tumor cell kill
circumvention of resistance to cisplatin [3]: can partially circumvent intrinsic and acquired resistance to cisplatin

O=C1c2c(O)ccc(O)c2C(=O)c2c(NCCNCCO)ccc(NCCNCCO)c21 [Mitoxantrone]
palliative response using pain response criteria [4]: 29%

N.N.[Cl][Pt][Cl] [cisplatin]
response rates to single agent ([5]; measurable disease, several trials): generally low or poor
efficacy in patients with metastatic prostatic carcinoma ([5]; phase II trial (Qazi & Khandekar)): not effective

C[C@]12CC[C@@H]3c4ccc(OC(=O)N(CCCl)CCCl)cc4CC[C@H]3[C@@H]1CC[C@@H]2O [estramustine, Estramustine]
patients with decrease of >50% in serum PSA levels [6]: > 50%
tolerability [6]: well tolerated

C[C@]12C=CC(=O)C=C1CC[C@@H]1[C@@H]2C(=O)C[C@@]2(C)[C@H]1CC[C@]2(O)C(=O)CO [prednisone alone, prednisone]
Progression-free survival [7]: 2.5 months
patients with >50% decrease in prostate specific antigen (PSA) [7]: 8.7%
Median overall survival ([7]; 50 randomized patients): 11.9 months
palliative response using pain response criteria [4]: 12%

CC(=O)[O][Pt]([NH2])([Cl])([Cl])([NH]C1CCCCC1)[O]C(C)=O [satraplatin, bis(acetato) ammine dichloro (cyclohexylamine) platinum (IV)]
sensitivity, mismatch repair-proficient versus -deficient cell lines [8]: no difference in sensitivity
antitumor activity of combination with docetaxel [9]: synergistic antitumor activity
antitumor activity of combination with paclitaxel [9]: antitumor activity
efficacy of orally administered satraplatin [10]: comparable to that of cisplatin and carboplatin administered intravenously
cytotoxicity compared with cisplatin [11]: significantly more cytotoxic than cisplatin
activity in HRPC [12]: moderate activity
toxicity [12]: significant treatment-related toxicities
PSA mRNA transcription (LNCaP cells): 90 % of control
cell number (LNCaP cells): 56 % of control
secreted PSA protein level (LNCaP cells): 58 % of control
result of treatment of prostate cancer cells [2]: tumor cell kill
sensitivity of cell lines to satraplatin ([2]; androgen-insensitive PC-3 and DU 145 versus androgen-sensitive LNCaP): more sensitive
radiopotentiation (human lung cancer cells): can potentiate the effects of radiation
change in sensitivity of mutants [13]: none of the mutants demonstrated an appreciable change in sensitivity
antitumor activity of combination with docetaxel [14]: synergistic antitumor activity
antitumor activity of combination with paclitaxel [14]: synergistic antitumor activity
circumvention of resistance to cisplatin [3]: can partially circumvent intrinsic and acquired resistance to cisplatin
platinum-DNA adduct levels compared to cisplatin ([3]; equimolar basis): lower levels of platinum-DNA adducts
